Here are results for five molecules from the NIST ThermoML archive (doi:10.1021/acs.jced.7b00827).

For data set [1] the following is noted: Liquid, Ebulliometric method (Recirculating still).
The nature of data set [2]: refractive index (Na D-line) (dimensionless). As to conditions: 101.33 kPa, Standard Abbe refractometry.

Molecules are shown by their SMILES. Numbers after ± are expanded uncertainties.

Turning to `Cc1cccc(C)c1O` [2,6-dimethylphenol], the “vapor or sublimation pressure” value in data set [1] (418.21 K) was 20 ± 0.2 kPa. Moreover, the Normal boiling temperature in data set [1] came out at 201.20 ± 1 °C. The refractive index came to 1.5075 ± 0.0008 in data set [2] (293.15 K, Metastable liquid) and 1.5053 ± 0.0008 in data set [2] (298.15 K, Metastable liquid).
For `Cc1cccc(O)c1` [3-methylphenol], the “vapor or sublimation pressure” value in data set [1] (422.28 K) turned out to be 20 ± 0.2 kPa. In data set [1], the Normal boiling temperature amounted to 202.20 ± 1 °C. Besides, the refractive index in data set [2] (293.15 K, Liquid) was 1.5396 ± 0.0008; in data set [2] (298.15 K, Liquid), 1.5374 ± 0.0008.
`CC(O)CNCC(C)O` (stereo not drawn) [N-(2-hydroxypropyl)-2-hydroxy-1-propanamine]: in data set [1] (468.25 K), the “vapor or sublimation pressure” value was 20 ± 0.2 kPa. Further, the Normal boiling temperature in data set [1] came to 249.1 ± 1 °C. Moreover, the refractive index in data set [2] (294.15 K, Liquid) amounted to 1.4625 ± 0.0008.
Take `CCO` [ethanol]: the “vapor or sublimation pressure” value in data set [1] (351.38 K) came to 101.3 ± 0.5 kPa.
On to `O` [water], for which the “vapor or sublimation pressure” value in data set [1] (373.05 K) is 101.3 ± 0.5 kPa.
